For eight compounds, GI50 and TGI results are on record in PubChem BioAssay (NCI).

Test systems include HT29 colon; PC-3 prostate; LOX IMVI melanoma; HCT-15 colon; NCI-H522 lung; T-47D breast; SW-620 colon; MDA-MB-231 breast; MOLT-4 leukemia; HS 578T breast.
Test in all cases: NCI anticancer screen, dose series, 48 h

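Test compounds were applied to cells in 96-well plates for 48 hours at 5 doses. At the GI50, growth is halved. TGI: concentration producing complete growth inhibition.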

`Oc1ccc(C2c3ccccc3Oc3ccccc32)c2cccnc12`: the GI50 was 1.1 µM in the experiment with HT29 colon; 1.9 µM in the experiment with PC-3 prostate; 0.778 µM in the experiment on LOX IMVI melanoma; 0.468 µM in the experiment on HCT-15 colon; 2.57 µM in the experiment with NCI-H522 lung; 2.95 µM in the experiment with T-47D breast. The GI50 is 1.17 µM with SW-620 colon, 4.36 µM in the experiment with MDA-MB-231 breast, 1.96 µM in the experiment on MOLT-4 leukemia and 3.45 µM in the experiment on HS 578T breast. Also, the TGI in the experiment with HT29 colon, with PC-3 prostate, in the experiment on LOX IMVI melanoma, in the experiment with HCT-15 colon, in the experiment with NCI-H522 lung and with T-47D breast was > 100 µM throughout. The TGI in the experiment on SW-620 colon, in the experiment with MDA-MB-231 breast, in the experiment with MOLT-4 leukemia and in the experiment with HS 578T breast was > 100 µM throughout.

`CCN(CC)C(=S)SCN1C(=O)c2ccccc2S1(=O)=O`: the GI50 in the experiment with HT29 colon is 25.1 µM; in the experiment on PC-3 prostate, 4.9 µM; in the experiment on LOX IMVI melanoma, 29.5 µM; in the experiment with HCT-15 colon, 50.9 µM; with NCI-H522 lung, 0.391 µM; in the experiment on T-47D breast, 36 µM. Besides, the GI50 is 43 µM in the experiment on SW-620 colon, 50.9 µM in the experiment with MDA-MB-231 breast, 23.9 µM in the experiment on MOLT-4 leukemia and > 100 µM in the experiment on HS 578T breast. Besides, the TGI in the experiment on HT29 colon is > 74.9 µM; in the experiment with PC-3 prostate it was > 100 µM; in the experiment on LOX IMVI melanoma it was > 66.8 µM; in the experiment on HCT-15 colon it was > 100 µM; with NCI-H522 lung, > 45 µM; with T-47D breast it was > 100 µM. The TGI with SW-620 colon, in the experiment with MDA-MB-231 breast, with MOLT-4 leukemia and with HS 578T breast was > 100 µM throughout.

Consider `CN(Cc1cc(Br)cc(Br)c1O)Cc1c(O)ccc2ccccc12`, for which the TGI is 37.8 µM with HT29 colon; 33.5 µM in the experiment on PC-3 prostate; 42.5 µM in the experiment on LOX IMVI melanoma; > 100 µM in the experiment with HCT-15 colon; 74.5 µM with NCI-H522 lung; 43.8 µM in the experiment on T-47D breast. Also, the TGI was > 100 µM in the experiment with SW-620 colon, 35.6 µM in the experiment with MDA-MB-231 breast, 30 µM in the experiment with MOLT-4 leukemia and 77.2 µM in the experiment with HS 578T breast.

In the case of `CSC(=S)OC1CC(n2cnc3c(NC(=O)c4ccccc4)ncnc32)OC1CO[Si](C)(C)C(C)(C)C` (stereo not given), the TGI was > 56.2 µM with HT29 colon; > 46.4 µM in the experiment on PC-3 prostate; 47.2 µM in the experiment with LOX IMVI melanoma; > 56.2 µM with HCT-15 colon; > 56.2 µM with NCI-H522 lung; > 56.2 µM with T-47D breast. Also, the TGI with SW-620 colon is > 56.2 µM; in the experiment on MDA-MB-231 breast, > 46.4 µM; in the experiment on MOLT-4 leukemia, 14.8 µM; in the experiment on HS 578T breast, > 56.2 µM.

On to `CCC(=O)Nc1ccc(C)c(-c2ccc(C(=O)NCC3CC3)cc2)c1`, for which the GI50 with HT29 colon is > 25 µM; in the experiment with PC-3 prostate, > 25 µM; in the experiment with LOX IMVI melanoma, > 25 µM; with HCT-15 colon, > 25 µM; in the experiment with NCI-H522 lung, > 25 µM; with T-47D breast it was 14.6 µM. Further, the GI50 in the experiment on SW-620 colon, in the experiment on MDA-MB-231 breast, with MOLT-4 leukemia and in the experiment on HS 578T breast was > 25 µM in each case. Besides, the TGI in the experiment on HT29 colon, with PC-3 prostate, with LOX IMVI melanoma, with HCT-15 colon, in the experiment with NCI-H522 lung and with T-47D breast was > 25 µM in each case. Moreover, the TGI with SW-620 colon, with MDA-MB-231 breast, in the experiment with MOLT-4 leukemia and with HS 578T breast was > 25 µM each time.

For `COC(=O)c1cc2c3ccccc3[nH]c2c2sccc12`, the GI50 in the experiment with HT29 colon was 6.96 µM; in the experiment with PC-3 prostate it was 22.1 µM; in the experiment with LOX IMVI melanoma, 5.68 µM; in the experiment on HCT-15 colon, 8.9 µM; in the experiment with NCI-H522 lung it was 17.2 µM; in the experiment with T-47D breast, 6.73 µM. For the same compound, the GI50 in the experiment on SW-620 colon is 35.1 µM; with MDA-MB-231 breast, 5.06 µM; in the experiment with MOLT-4 leukemia, 15.7 µM; with HS 578T breast, 13.5 µM. The TGI with HT29 colon was 18.7 µM; in the experiment with PC-3 prostate it was > 100 µM; with LOX IMVI melanoma, 24.8 µM; with HCT-15 colon it was 94.4 µM; in the experiment with NCI-H522 lung, > 100 µM; in the experiment on T-47D breast, 47.1 µM. The TGI was > 100 µM in the experiment on SW-620 colon, 61.3 µM in the experiment with MDA-MB-231 breast, > 100 µM with MOLT-4 leukemia and 38.7 µM in the experiment with HS 578T breast.

As to `COc1ccc2c(c1)C(=O)/C(=C/c1ccc([N+](=O)[O-])o1)O2`, the GI50 with HT29 colon is 0.954 µM; in the experiment on PC-3 prostate, 1.91 µM; with LOX IMVI melanoma, 1.4 µM; in the experiment on HCT-15 colon it was 0.613 µM; with NCI-H522 lung, 0.527 µM; in the experiment with T-47D breast, 0.77 µM. Besides, the GI50 in the experiment with SW-620 colon is 0.459 µM; with MDA-MB-231 breast, 1.41 µM; with MOLT-4 leukemia it was 1.67 µM; with HS 578T breast, 2.58 µM. In addition, the TGI came to 2.74 µM in the experiment with HT29 colon; 8.27 µM with PC-3 prostate; 2.86 µM with LOX IMVI melanoma; 2.14 µM with HCT-15 colon; 1.05 µM in the experiment with NCI-H522 lung; 2.59 µM in the experiment on T-47D breast. Further, the TGI in the experiment with SW-620 colon is 1.22 µM; with MDA-MB-231 breast it was 3.17 µM; in the experiment on MOLT-4 leukemia, 3.97 µM; with HS 578T breast, > 26.8 µM.

Turning to `Clc1ccccc1CNc1c2ccccc2nc2ccccc12`, the GI50 with HT29 colon is 1.67 µM; with PC-3 prostate, 2.24 µM; in the experiment with LOX IMVI melanoma it was 1.57 µM; in the experiment with HCT-15 colon it was 1.69 µM; with NCI-H522 lung it was 5.05 µM; in the experiment on T-47D breast, 2.3 µM. The GI50 in the experiment on SW-620 colon is 1.67 µM; with MDA-MB-231 breast it was 2.39 µM; with MOLT-4 leukemia it was 1.84 µM; with HS 578T breast, 5.97 µM. Further, the TGI in the experiment with HT29 colon worked out at 9.02 µM; in the experiment on PC-3 prostate, 11.9 µM; in the experiment with LOX IMVI melanoma, 5.93 µM; in the experiment with HCT-15 colon, 6.85 µM; with NCI-H522 lung it was 21.3 µM; in the experiment with T-47D breast it was 13 µM. The TGI is 6.56 µM in the experiment on SW-620 colon, 10.2 µM in the experiment on MDA-MB-231 breast, 16.3 µM in the experiment with MOLT-4 leukemia and 18.1 µM in the experiment with HS 578T breast.
